Assay results as given in patent US10053461B2 (Hoffmann-La Roche Inc., priority 2015, dated 2018).

Each compound was assayed on HBsAg (assay: microbe, parasite or virus in culture). Conditions: Hepatitis B virus, HepG2.2.15.
Method: HepG2.2.15 cells (Acs et al. Proc Natl Acad Sci USA, 84, (1987), 4641-4), a constitutively HBV-expressing cell line were cultured in DMEM+Glutamax-I medium (Invitrogen, Carlsbad, Calif., USA), supplemented with 10% fetal bovine serum (Invitrogen) and G418 (Invitrogen) at a final concentration of 200 mg/L and maintained in 5% CO2 at 37° C.
HepG2.2.15 cells were seeded in duplicate into white, 96-well plates at 1.5×10^4 cells/well. The cells were treated with a three-fold serial dilution series of the compounds in DMSO. The final DMSO concentration in all wells was 1% and DMSO was used as no drug control.
The HBsAg chemiluminescence immunoassay (CLIA) kit (Autobio Diagnostics Co., Zhengzhou, China, Catalog number: CL0310-2) was used to measure the levels of secreted HBV antigens semi-quantitatively. For the detection 50 μL/well culture supernatant was used and HBsAg was quantified using HBsAg chemiluminescence immunoassay (CLIA) kit (Autobio Diagnostics Co., Zhengzhou, China, Catalog number: CL0310-2), 50 μL of the supernatant was transferred to the CLIA assay plate and 50 μL of enzyme conjugate reagent was added into each well. The plates were sealed and gently agitated for 1 hour at room temperature. The supernatant-enzyme-mixture was discarded and wells were washed 6 times with 300 μL of PBS. The residual liquid was removed by plating the CLIA plate right side down on absorbent tissue paper. 25 μL of substrates A and B were added to each well. Luminance was measured using a luminometer (Mithras LB 940 Multimode Microplate Reader) after 10 minutes incubation. Dose-response curves were generated and the IC50 value was extrapolated by using the E-WorkBook Suite (ID Business Solutions Ltd., Guildford, UK). The IC50 was defined as the compound concentration (or conditioned media log dilution) at which HBsAg secretion was reduced by 50% compared to the no drug control.
The compounds of the present invention were tested for their activity to inhibit HBsAg as described herein.
`COCCCOc1cc2c(cc1OC)-c1cc(=O)c(C(=O)O)cn1[C@@H]1CCOC[C@@H]21` (relative stereo) [Example 33, Trans-11-methoxy-12-(3-methoxypropoxy)-8-oxo-1,3,4,4a,8,13b-hexahydropyrano[4,3-c]pyrido[2,1-a]isoquinoline-7-carboxylic acid] gave an IC50 of 265 nM.
With `COc1cc2c(cc1OCCCCCCNC(C)=O)[C@H]1CCC(C)(C)[C@H]1n1cc(C(=O)O)c(=O)cc1-2` (relative stereo) [Example 25, Cis-11-((6-acetamidohexyl)oxy)-10-methoxy-3,3-dimethyl-7-oxo-1,2,3,3a,7,12b-hexahydrocyclopenta[c]pyrido[2,1-a]isoquinoline-6-carboxylic acid] the IC50 was 6 nM.
`COc1cc2c(cc1OCC(F)(F)F)[C@H]1CCC(C)(C)[C@H]1n1cc(C(=O)O)c(=O)cc1-2` (relative stereo) [Example 8, Cis-10-methoxy-3,3-dimethyl-7-oxo-11-(2,2,2-trifluoroethoxy)-1,2,3,3a,7,12b-hexahydrocyclopenta[c]pyrido[2,1-a]isoquinoline-6-carboxylic acid] was tested, and the IC50 was 3 nM.
Compound `COc1cc2c(cc1O)[C@H]1CCC(C)(C)[C@H]1n1cc(C(=O)O)c(=O)cc1-2` (relative stereo) [Example 6, Cis-11-hydroxy-10-methoxy-3,3-dimethyl-7-oxo-1,2,3,3a,7,12b-hexahydrocyclopenta[c]pyrido[2,1-a]isoquinoline-6-carboxylic acid] has an IC50 of 84 nM.
With `COCCCOc1cc2c(cc1OC)-c1cc(=O)c(C(=O)O)cn1[C@H]1CCN(C(=O)OCc3ccccc3)C[C@@H]21` (relative stereo) [Example 30, cis-2-((benzyloxy)carbonyl)-11-methoxy-12-(3-methoxypropoxy)-8-oxo-2,3,4,4a,8,13b-hexahydro-1H-benzo[c]pyrido[1,2-a][1,6]naphthyridine-7-carboxylic acid] the IC50 was 564 nM.
In the case of `CCCc1cc2c(cc1OC)-c1cc(=O)c(C(=O)O)cn1[C@H]1[C@@H]2CCC1(C)C` (relative stereo) [Example 40, Cis-10-methoxy-3,3-dimethyl-7-oxo-11-propyl-1,2,3,3a,7,12b-hexahydrocyclopenta[c]pyrido[2,1-a]isoquinoline-6-carboxylic acid], the IC50 is reported as 19 nM.
Work on `CCOC(=O)CCCOc1cc2c(cc1OC)-c1cc(=O)c(C(=O)O)cn1[C@H]1[C@@H]2CCC1(C)C` (relative stereo) [Example 18, Cis-11-(4-ethoxy-4-oxobutoxy)-10-methoxy-3,3-dimethyl-7-oxo-1,2,3,3a,7,12b-hexahydrocyclopenta[c]pyrido[2,1-a]isoquinoline-6-carboxylic acid] yielded an IC50 of 10 nM.
Compound `COCCCOc1cc2c(cc1Cl)-c1cc(=O)c(C(=O)O)cn1[C@@H]1CCCCC[C@@H]21` (relative stereo) [Example 27, Trans-13-chloro-12-(3-methoxypropoxy)-2-oxo-2,5a,6,7,8,9,10,10a-octahydrocyclohepta[c]pyrido[2,1-a]isoquinoline-3-carboxylic acid] has an IC50 of 20 nM.
Compound `COc1cc2c(cc1OC)[C@H]1CCC(C)(C)[C@H]1n1cc(C(=O)O)c(=O)cc1-2` (relative stereo) [Example 7, Cis-10,11-dimethoxy-3,3-dimethyl-7-oxo-1,2,3,3a,7,12b-hexahydrocyclopenta[c]pyrido[2,1-a]isoquinoline-6-carboxylic acid] has an IC50 of 5 nM.
`COc1cc2c(cc1OCCCS(C)(=O)=O)[C@H]1CCC(C)(C)[C@H]1n1cc(C(=O)O)c(=O)cc1-2` (relative stereo) [Example 21, Cis-10-methoxy-3,3-dimethyl-11-(3-(methylsulfonyl)propoxy)-7-oxo-1,2,3,3a,7,12b-hexahydrocyclopenta[c]pyrido[2,1-a]isoquinoline-6-carboxylic acid] gave an IC50 of 17 nM.
Compound `COCCCOc1cc2c(cc1OC)-c1cc(=O)c(C(=O)O)cn1[C@@H]1CCOC[C@H]21` (relative stereo) [Example 34, cis-11-methoxy-12-(3-methoxypropoxy)-8-oxo-1,3,4,4a,8,13b-hexahydropyrano[4,3-c]pyrido[2,1-a]isoquinoline-7-carboxylic acid] has an IC50 of 186 nM.
`COc1cc2c(cc1OCCCC(=O)O)[C@H]1CCC(C)(C)[C@H]1n1cc(C(=O)O)c(=O)cc1-2` (relative stereo) [Example 19, Cis-11-(3-carboxypropoxy)-10-methoxy-3,3-dimethyl-7-oxo-1,2,3,3a,7,12b-hexahydrocyclopenta[c]pyrido[2,1-a]isoquinoline-6-carboxylic acid] was tested, and the IC50 was 505 nM.
Work on `COCCCOc1cc2c(cc1OC)-c1cc(=O)c(C(=O)O)cn1[C@H]1[C@@H]2CCC1(C)C` (racemic) [Example 2, cis-10-methoxy-11-(3-methoxypropoxy)-3,3-dimethyl-7-oxo-1,2,3,3a,7,12b-hexahydrocyclopenta[c]pyrido[2,1-a]isoquinoline-6-carboxylic acid] yielded an IC50 of 1 nM.
`COc1cc2c(cc1OCCCCCCNC(=O)OC(C)(C)C)[C@H]1CCC(C)(C)[C@H]1n1cc(C(=O)O)c(=O)cc1-2` (relative stereo) [Example 23, Cis-11-((6-((tert-butoxycarbonyl)amino)hexyl)oxy)-10-methoxy-3,3-dimethyl-7-oxo-1,2,3,3a,7,12b-hexahydrocyclopenta[c]pyrido[2,1-a]isoquinoline-6-carboxylic acid] was tested, and the IC50 was 2 nM.
Work on `COc1cc2c(cc1OCCCCCCO)[C@H]1CCC(C)(C)[C@H]1n1cc(C(=O)O)c(=O)cc1-2` (relative stereo) [Example 22, Cis-11-((6-hydroxyhexyl)oxy)-10-methoxy-3,3-dimethyl-7-oxo-1,2,3,3a,7,12b-hexahydrocyclopenta[c]pyrido[2,1-a]isoquinoline-6-carboxylic acid] yielded an IC50 of 1 nM.
For `COc1cc2c(cc1N1CCCC1)[C@H]1CCC(C)(C)[C@H]1n1cc(C(=O)O)c(=O)cc1-2` (relative stereo) [Example 41, Cis-10-methoxy-3,3-dimethyl-7-oxo-11-(pyrrolidin-1-yl)-1,2,3,3a,7,12b-hexahydrocyclopenta[c]pyrido[2,1-a]isoquinoline-6-carboxylic acid], the IC50 was < 1.6 nM.
Compound `COCCCOc1cc2c(cc1OC)-c1cc(=O)c(C(=O)O)cn1[C@@H]1CCSC[C@H]21` (racemic) [Example 36, cis-11-methoxy-12-(3-methoxypropoxy)-8-oxo-1,3,4,4a,8,13b-hexahydropyrido[2,1-a]thiopyrano[4,3-c]isoquinoline-7-carboxylic acid] has an IC50 of 28 nM.
With `COc1cc2c(cc1OCCCCCCN)[C@H]1CCC(C)(C)[C@H]1n1cc(C(=O)O)c(=O)cc1-2` (relative stereo) [Example 24, Cis-11-((6-aminohexyl)oxy)-10-methoxy-3,3-dimethyl-7-oxo-1,2,3,3a,7,12b-hexahydrocyclopenta[c]pyrido[2,1-a]isoquinoline-6-carboxylic acid] the IC50 was 20 nM.
With `COc1cc2c(cc1OCC1CC1)[C@H]1CCC(C)(C)[C@H]1n1cc(C(=O)O)c(=O)cc1-2` (relative stereo) [Example 10, Cis-11-(cyclopropylmethoxy)-10-methoxy-3,3-dimethyl-7-oxo-1,2,3,3a,7,12b-hexahydrocyclopenta[c]pyrido[2,1-a]isoquinoline-6-carboxylic acid] the IC50 was 1 nM.
